# From patent publication US10888576B2, “Composition of HMB and ATP and methods of use” (Metabolic Technologies, Inc., priority 2018, dated 2021)
# Tests used:
# Format in all cases: in vivo, human
# [1] = tested on: resistance-trained males; assay: Wingate test peak power (maximal cycling); settings: for Wingate PP gains in power from baseline: after the first week of the increased training (overreaching); for Wingate PP decrease: during the 2-week overreaching cycle
# Description: Muscle power was assessed during maximal cycling (Wingate Test) and jumping movements. During the cycling test, volunteers were instructed to cycle against a predetermined resistance (7.5% of body weight) as fast as possible for 10 seconds (36). The saddle height was adjusted to the individual's height to produce a 5-10° knee flexion while the foot was in the low position of the central void. A standardized verbal stimulus was provided to each participant. Power output was recorded in real time during the 10-second sprint test, by a computer connected to the standard cycle ergometer (Monark model 894e, Vansbro, Sweden). Peak power (PP) was recorded using Monark Anaerobic Wingate Software, Version 1.0 (Monark, Vansbro, Sweden). The ICC of muscle peak power was 0.96. Prior to the study, participants were randomly assigned to receive either 3 g per day of HMB Free Acid (HMB) (combined with food-grade orange flavors and sweeteners), 400 mg per day of ATP (PEAK ATP®; TSI, Inc.), a combination of both 3 g of HMB and 400 mg per day of ATP, or a placebo (food-grade orange flavors and sweeteners) divided equally into three servings daily with the first serving given 30 minutes prior to exercise and the remaining two servings daily with the mid-day and evening meals. On the non-training days participants were instructed to consume one serving with each of three separate meals. The supplementation was continued daily throughout the training and testing protocols. […] This dosage would be equivalent to a 1 gram Ca-HMB dosage. All participants performed a high volume resistance training protocol during the 12-week study. The phases of the study and measurements taken are shown in FIG. 1, and the exercise protocols for each phase of the study are shown in Tables 1 to 3. The training was divided into 3 phases, with Phase 1 consisting of daily undulating periodization (weeks 1 to 8), Phase 2 consisting of the overreaching cycle (weeks 9 and 10), and Phase 3 consisting of the taper cycle (weeks 11 and 12).
# [2] = tested on: C-reactive protein (CRP); assay: Serum C-reactive protein ELISA; settings: Mean ± SEM
# Description: (§1) Prior to the study, participants were randomly assigned to receive either 3 g per day of HMB Free Acid (HMB) (combined with food-grade orange flavors and sweeteners), 400 mg per day of ATP (PEAK ATP®; TSI, Inc.), a combination of both 3 g of HMB and 400 mg per day of ATP, or a placebo (food-grade orange flavors and sweeteners) divided equally into three servings daily with the first serving given 30 minutes prior to exercise and the remaining two servings daily with the mid-day and evening meals. On the non-training days participants were instructed to consume one serving with each of three separate meals. The supplementation was continued daily throughout the training and testing protocols. Each serving was formulated with 1 gram of HMB free acid to account for fill and emptying variation and achieve a minimum effective dosage of 0.800 grams. This dosage would be equivalent to a 1 gram Ca-HMB dosage.
# (§2) All blood draws throughout the study were obtained via venipuncture after a 12-hour fast by a trained phlebotomist. Whole blood was collected and transferred into appropriate tubes for obtaining serum and plasma and centrifuged at 1,500 g for 15 min at 4° C. Resulting serum and plasma were then aliquoted and stored at −80° C. until subsequent analyses.
# (§3) Samples were thawed one time and analyzed in duplicate for each analyte. All blood draws were scheduled at the same time of day to negate confounding influences of diurnal hormonal variations. Serum total and free testosterone, cortisol, and C-reactive protein (CRP) were assayed via ELISA kits obtained from Diagnostic Systems Laboratories (Webster, Tex.). All hormones were measured in the same assay on the same day to avoid compounded interassay variance. […] Serum creatine kinase (CK) was measured using colorimetric procedures at 340 nm (Diagnostics Chemicals, Oxford, Conn.). Twenty-four hour urine collections were made and 3-methylhistine was determined by previously described methods (Rathmacher et al 1992 and Wilson et al, 2013).
# [3] = tested on: cortisol; assay: Serum cortisol ELISA; settings: for effect on cortisol levels: during the study, vs placebo; for Cortisol: Mean ± SEM
# Description: as §1, §2, §3
# [4] = tested on: resistance-trained males; assay: Body composition (weight, lean body mass, fat) by dual x-ray absorptiometry, 12-week resistance training study
# [5] = tested on: resistance-trained males; assay: Muscle strength: 1RM of back squat, bench press and deadlift (total strength); settings: for change in total strength during the overreaching cycle: from week 8 to week 10; for total strength gains: over the 12-week study, 1-RM of squat, bench press, deadlift
# Description: After familiarization with procedures, muscle strength was assessed via 1RM testing of the back squat, bench press, and […]. Each lift was performed as described by the International Powerlifting Federation rules (44). Body composition (lean body mass, fat mass, and total mass) was determined by dual x-ray absorptiometry (DXA; Lunar Prodigy enCORE 2008, Madison, Wis., U.S.A.). Skeletal muscle hypertrophy was determined via the combined changes in ultrasonography-determined muscle thickness of the vastus lateralis (VL) and vastus intermedius (VI) muscles. The intraclass correlation coefficient (ICC) for the test-retest of muscle thickness measurements was r=0.97. Prior to the study, participants were randomly assigned to receive either 3 g per day of HMB Free Acid (HMB) (combined with food-grade orange flavors and sweeteners), 400 mg per day of ATP (PEAK ATP®; TSI, Inc.), a combination of both 3 g of HMB and 400 mg per day of ATP, or a placebo (food-grade orange flavors and sweeteners) divided equally into three servings daily with the first serving given 30 minutes prior to exercise and the remaining two servings daily with the mid-day and evening meals. On the non-training days participants were instructed to consume one serving with each of three separate meals. The supplementation was continued daily throughout the training and testing protocols. […] This dosage would be equivalent to a 1 gram Ca-HMB dosage. All participants performed a high volume resistance training protocol during the 12-week study. The phases of the study and measurements taken are shown in FIG. 1, and the exercise protocols for each phase of the study are shown in Tables 1 to 3. The training was divided into 3 phases, with Phase 1 consisting of daily undulating periodization (weeks 1 to 8), Phase 2 consisting of the overreaching cycle (weeks 9 and 10), and Phase 3 consisting of the taper cycle (weeks 11 and 12).
# [6] = tested on: creatine kinase (CK); assay: Serum creatine kinase (muscle damage), colorimetric; settings: for effect on training-induced increase in CK: compared with placebo, initiation of training and overreaching cycle; for CK: Mean ± SEM
# Description: as §1, §2, §3
smiles,measurement,setting,value
"CC(C)(O)CC(=O)O [HMB-FA, β-hydroxy-β-methylbutyric acid]",Wingate PP gains in power from baseline,[1],10.2±1.6%
same,Wingate PP decrease,[1],0.3±0.9%
same,CRP,[2]; week 0 (baseline),1.0 ± 0.1 mg/L
same,CRP,[2]; week 1,1.3 ± 0.3 mg/L
same,CRP,[2]; week 4,1.0 ± 0.1 mg/L
same,CRP,[2]; week 8,0.9 ± 0.01 mg/L
same,CRP,[2]; week 9 (overreaching),1.0 ± 0.1 mg/L
same,CRP,[2]; week 10 (overreaching),1.8 ± 0.8 mg/L
same,CRP,[2]; week 12,1.1 ± 0.1 mg/L
same,effect on cortisol levels,[3],decreased cortisol levels
same,Cortisol,[3]; week 0 (baseline),21.5 ± 1.4 µg/dL
same,Cortisol,[3]; week 1,20.3 ± 1.2 µg/dL
same,Cortisol,[3]; week 4,20.9 ± 1.0 µg/dL
same,Cortisol,[3]; week 8,18.8 ± 1.5 µg/dL
same,Cortisol,[3]; week 9 (overreaching),19.6 ± 1.1 µg/dL
same,Cortisol,[3]; week 10 (overreaching),18.6 ± 1.2 µg/dL
same,Cortisol,[3]; week 12,17.4 ± 1.2 µg/dL
same,Lean body mass increase,[4]; 12-week study,7.4 ± 0.4 kg
same,fat percentage decrease,[4]; 12-week study,7.0±0.6%
same,DXA Fat,[4]; week 0 (baseline),20.4 ± 1.4%
same,DXA LBM,[4]; week 0 (baseline),66.2 ± 2.6 kg
same,Weight,[4]; week 0 (baseline),83.1 ± 2.8 kg
same,DXA Fat,[4]; week 4,17.6 ± 1.4%
same,DXA LBM,[4]; week 4,69.2 ± 2.7 kg
same,Weight,[4]; week 4,83.9 ± 2.8 kg
same,DXA Fat,[4]; week 8,15.9 ± 1.5 %
same,DXA LBM,[4]; week 8,71.3 ± 2.7 kg
same,Weight,[4]; week 8,84.8 ± 2.9 kg
same,DXA Fat,[4]; week 12,13.5 ± 1.5 %
same,DXA LBM,[4]; week 12,73.5 ± 2.7 kg
same,Weight,[4]; week 12,85.0 ± 3.0 kg
same,change in total strength during the overreaching cycle,[5],−0.5±1.2%
same,total strength gains,[5],77.1 ± 5.6 kg
same,effect on training-induced increase in CK,[6],significantly attenuated the increase in CK
same,CK,[6]; week 0 (baseline),158 ± 16 IU/L
same,CK,[6]; week 1,322 ± 35 IU/L
same,CK,[6]; week 4,280 ± 22 IU/L
same,CK,[6]; week 8,255 ± 28 IU/L
same,CK,[6]; week 9 (overreaching),288 ± 18 IU/L
same,CK,[6]; week 10 (overreaching),250 ± 14 IU/L
same,CK,[6]; week 12,147 ± 15 IU/L
"Nc1ncnc2c1ncn2[C@@H]1O[C@H](COP(=O)(O)OP(=O)(O)OP(=O)(O)O)[C@@H](O)[C@H]1O [ATP, Adenosine-5′-triphosphate]",Wingate PP gains in power from baseline,[1],9.0±1.6%
same,Wingate PP decrease,[1],2.9±0.7%
same,CRP,[2]; week 0 (baseline),1.4 ± 0.4 mg/L
same,CRP,[2]; week 1,1.1 ± 0.1 mg/L
same,CRP,[2]; week 4,1.2 ± 0.2 mg/L
same,CRP,[2]; week 8,1.9 ± 0.6 mg/L
same,CRP,[2]; week 9 (overreaching),1.7 ± 0.6 mg/L
same,CRP,[2]; week 10 (overreaching),1.1 ± 0.1 mg/L
same,CRP,[2]; week 12,1.2 ± 0.2 mg/L
same,effect on cortisol levels,[3],did not affect cortisol levels
same,Cortisol,[3]; week 0 (baseline),20.9 ± 1.2 µg/dL
same,Cortisol,[3]; week 1,20.5 ± 1.3 µg/dL
same,Cortisol,[3]; week 4,18.4 ± 1.4 µg/dL
same,Cortisol,[3]; week 8,19.0 ± 0.4 µg/dL
same,Cortisol,[3]; week 9 (overreaching),21.5 ± 0.4 µg/dL
same,Cortisol,[3]; week 10 (overreaching),22.6 ± 0.2 µg/dL
same,Cortisol,[3]; week 12,19.7 ± 0.6 µg/dL
same,Lean body mass increase,[4]; 12-week study,4.0 ± 0.4 kg
same,DXA Fat,[4]; week 0 (baseline),19.5 ± 1.8%
same,DXA LBM,[4]; week 0 (baseline),67.7 ± 2.0 kg
same,Weight,[4]; week 0 (baseline),85.7 ± 1.7 kg
same,DXA Fat,[4]; week 4,18.1 ± 1.8%
same,DXA LBM,[4]; week 4,70.1 ± 1.9 kg
same,Weight,[4]; week 4,86.9 ± 2.0 kg
same,DXA Fat,[4]; week 8,16.6 ± 1.6%
same,DXA LBM,[4]; week 8,71.4 ± 2.0 kg
same,Weight,[4]; week 8,87.0 ± 2.0 kg
same,DXA Fat,[4]; week 12,16.0 ± 1.5%
same,DXA LBM,[4]; week 12,71.7 ± 1.9 kg
same,Weight,[4]; week 12,87.0 ± 2.1 kg
same,change in total strength during the overreaching cycle,[5],−2.±0.5%
same,total strength gains,[5],55.3 ± 6.0 kg
same,effect on training-induced increase in CK,[6],did not attenuate the increases in CK
same,CK,[6]; week 0 (baseline),145 ± 8 IU/L
same,CK,[6]; week 1,500 ± 71 IU/L
same,CK,[6]; week 4,324 ± 14 IU/L
same,CK,[6]; week 8,234 ± 32 IU/L
same,CK,[6]; week 9 (overreaching),426 ± 44 IU/L
same,CK,[6]; week 10 (overreaching),449 ± 62 IU/L
same,CK,[6]; week 12,160 ± 20 IU/L
